{"source": "patent US20220395489A1", "about": "“THERAPEUTIC APPROACH FOR TREATING INFLAMMATORY BOWEL DISEASE” (THE REGENTS OF THE UNIVERSITY OF CALIFORNIA, priority 2019, published 2022)", "origin": "cited, not measured here", "key": {"[1]": {"conditions": "low pH values, compared with PMSF"}, "[2]": {"conditions": "water"}}, "note": "Non-standard residues stand in square brackets, D forms with d. Residues, ends and D or L forms follow the SMILES beside them. *: point of attachment. Sta = CC(C)C[C@H](N)[C@@H](O)CC(=O)O; Isovaleryl = CC(C)CC(=O)*", "data": [{"smiles": "Cl.NCCc1ccc(S(=O)(=O)F)cc1", "note": "[AEBSF, 4-(2-aminoethyl)benzenesulfonyl fluoride hydrochloride]", "values": [{"measurement": "stability", "setting": "[1]", "result": "more stable"}, {"measurement": "solubility", "setting": "[2]", "result": "water-soluble"}]}, {"smiles": "CC(C)CC(=O)N[C@H](C(=O)N[C@H](C(=O)N[C@@H](CC(C)C)[C@@H](O)CC(=O)N[C@@H](C)C(=O)N[C@@H](CC(C)C)[C@@H](O)CC(=O)O)C(C)C)C(C)C", "note": "[Pepstatin, Isovaleryl-Val-Val-Sta-Ala-Sta] (Isovaleryl-VV[Sta]A[Sta]-OH)", "values": [{"measurement": "ability to inhibit pepsin", "setting": "pepsin", "result": "picomolar concentrations"}]}]}
